In patent US20240084258A1, “METHOD FOR PREPARING BROWN ADIPOCYTE” (KYOTO PREFECTURAL PUBLIC UNIVERSITY CORPORATION, priority 2015, published 2024):

Assays:
Format in all cases: cell-based
[1] = system: human dermal fibroblasts (HDFs); experiment: UCP1 gene mRNA by real time RT-PCR (Example 2); details: induction medium + T3 + Rosiglitazone, D4476 2 μM, FSK 2 μM, PD0325901 1 μM, SB431542 2 μM, day 14, FIG. 2
Description: (§1) This was seeded in a 24-well plate at a concentration of 1×10^4 cells/well (day 0), and culturing was started at 5% CO2/95% humid air, 37° C. The next day, the culture supernatant was removed by suction and, as described in the Figure, a normal medium, an adipocyte induction medium, or an adipocyte induction medium added with each low-molecular compound and the like was added at 500 μL/well. […] The concentrations of the additives are as follows: • T3: 1 nM • Rosiglitazone: 1 μM • D4476: 2 μM • Pifithrin alpha [p53 inhibitor]: 5 μM • Forskolin (FSK): 2 μM • PD0325901: 1 μM • SB431542: 2 μM. The culture medium was substituted by a fresh one every 3-4 days and the cells were cultured up to day 14.

[2] = system: human dermal fibroblasts (HDFs); experiment: AdipoQ gene mRNA by real time RT-PCR (Example 6); details: induction medium + T3 + Rosiglitazone, D4476, SB431542, ALK5 Inhibitor II 2 μM, PD0325901 1 μM, day 14, FIG. 6
Description: as §1, with “with each low-molecular-weight compound and” for “with each low-molecular compound and”, “D4476: 2 μM. • Pifithrin” for “D4476: 2 μM • Pifithrin”, “μM • PD0325901: 1” for “μM • Forskolin (FSK): 2 μM • PD0325901: 1”, “• SB431542: 2 μM • ALK5 Inhibitor II: 2 μM.” for “• SB431542: 2 μM.”

[3] = system: human dermal fibroblasts (HDFs); experiment: UCP1 protein immunostaining, fluorescence intensity (Example 8); details: for UCP1 protein expression by immunostaining (conversion to brown adipocytes): induction medium + T3 + Rosiglitazone, D4476, SB431541, ALK5 inhibitor II, FSK 2 μM, PD0325901 1 μM, day 14, FIG. 8A-C
Description: (§2) The next day, the culture supernatant was removed by suction and, as described in the Figure, a normal medium, an adipocyte induction medium, or an adipocyte induction medium added with each compound and the like was added at 500 μL/well. […] The concentrations of the additives are as follows: • T3: 1 nM • Rosiglitazone: 1 μM • […]: 2 μM • SB431541: 2 μM • ALK5 inhibitor II: 2 μM • PD0325901: 1 μM • Forskolin (FSK): 2 μM. The culture medium was substituted by a fresh one every 3-4 days and the cells were cultured up to day 14. […] The cells were photographed at a magnification of 200 with a fluorescence microscope and the fluorescence intensity was measured.

[4] = system: human dermal fibroblasts (HDFs); experiment: PGC-1alpha gene mRNA by real time RT-PCR (Example 5); details: induction medium + T3 + Rosiglitazone, FSK 2 μM, PD0325901 1 μM, day 14, FIG. 5
Description: The next day, the culture supernatant was removed by suction and, as described in the Figure, a normal medium, an adipocyte induction medium, or an adipocyte induction medium added with each compound and the like was added at 500 μL/well. […] The concentrations of the additives are as follows: • T3: 1 nM • Rosiglitazone: 1 μM • Pifithrin alpha [p53 inhibitor]: 5 μM • Forskolin (FSK): 2 μM • PD0325901: 1 μM. The culture medium was substituted by a fresh one every 3-4 days and the cells were cultured up to day 14.

[5] = system: human dermal fibroblasts (HDFs); experiment: UCP1 mRNA response of induced cells to Isoproterenol or FSK stimulation (Example 3); details: cells cultured 14 days with T3, Rosiglitazone and D4476, then 10 μM Isoproterenol or FSK for 5 hr; FIG. 3
Description: 10 μM Isoproterenol or FSK was added to these cells as described in the Figure. As a control, a group free of the addition was also prepared. After 5 hr, the culture medium was removed from each well by suction, the cells were washed with PBS(−) and total RNA was extracted from the cells with ISOGEN II. qRT-PCR was performed in the same manner as in Example 2. The mRNA level of UCP1 gene was quantified as a ratio to […] gene mRNA and calculated with the value of fibroblast cultured in the normal medium as 1.

[6] = system: human dermal fibroblasts (HDFs); experiment: Oil Red O staining of fibroblasts cultured with compounds (Example 1); details: adipocyte induction medium with T3 1 nM and Rosiglitazone 1 μM, D4476 2 μM, SB431542 2 μM, ALK5 Inhibitor II 2 M, Pifithrin alpha 5 μM, day 14, FIG. 1
Description: The next day, the culture supernatant was removed by suction and, as described in the Figure, a normal medium, an adipocyte induction medium, or an adipocyte induction medium added with the compound and the like was added at 500 μL/well.
The adipocyte induction medium is a 10% FBS-added DMEM+MDI medium (10% FBS-added DMEM supplemented with 0.5 mM isobutylmethylxanthine (IBMX), 0.5 μM dexamethason and 1 μg/mL Insulin).
The concentrations of the additives are as follows: • T3: 1 nM • Rosiglitazone: 1 μM • D4476: 2 μM • Pifithrin alpha [p53 inhibitor]: 5 μM • SB431542: 2 μM • ALK5 Inhibitor II: […].
The culture medium was substituted by a fresh one every 3-4 days and the cells were cultured up to day 14.
After washing 3 times with sterile distilled water, Oil Red O staining solution was added, and the mixture was incubated at room temperature for 15 min. Then, the cells were washed with sterile distilled water and photographed at a magnification of 100 with a phase contrast microscope.

[7] = system: human dermal fibroblasts (HDFs); experiment: UCP1 protein immunostaining, comparison of four inhibitors (Example 16); details: ALK5 inhibitor II 4 μM, LY2157299 8 μM; for UCP1 protein expression by immunostaining (induction into brown adipocytes): SB431542 4 μM, D4476 4 μM up to Day 9, day 14, FIG. 16A, 16B
Description: Thereafter, the cells were cultured in an adipocyte induction medium free of any compound of ALK5 inhibitor II, SB431542, LY215799 and D4476 during Day 9-Day 14. On day 14, the medium was removed by suction from each well, and the cells were washed with PBS(−).

[8] = system: human dermal fibroblasts (HDFs); experiment: CIDEA gene mRNA by real time RT-PCR (Example 4); details: induction medium + T3 + Rosiglitazone, compounds 2 μM, day 14, FIG. 4
Description: The next day, the culture supernatant was removed by suction and, as described in the Figure, a normal medium, an adipocyte induction medium, or an adipocyte induction medium added with each compound and the like was added at 500 μL/well. […] The concentrations of the additives are as follows: • T3: 1 nM • Rosiglitazone: 1 μM • D4476: 2 μM • Pifithrin alpha [p53 inhibitor]: 5 μM • SB431542: 2 μM • ALK5 Inhibitor II: 2 μM. The culture medium was substituted by a fresh one every 3 4 days and the cells were cultured up to day 14.

[9] = system: human dermal fibroblasts (HDFs); experiment: UCP1 gene mRNA, comparison of four inhibitors at 4-16 μM (Example 15); details: for induction efficiency into brown adipocytes (order): compound at 4, 8, 12 or 16 μM up to Day 9, UCP1 mRNA on day 14, FIG. 15; for UCP1 gene expression (conversion to brown adipocytes): compound at 4, 8, 12 or 16 μM up to Day 9, then without compound Day 9-14, FIG. 15
Description: (Day −1). In the control (Ctrl) group, the culture supernatant of the next day (Day 0) was removed by suction and the cells were cultured in a normal medium up to day 14 while substituting the medium with a fresh one once every other day. In groups other than the control (Ctrl) group, the culture supernatant was removed by suction on day 0, an adipocyte induction medium or an adipocyte induction medium added with any of ALK5 inhibitor II, SB431542, LY2157299 and D4476 at a concentration of 4 μM, 8 μM, 12 μM or 16 μM respectively was added at 1 mL/well.
Thereafter, the cells were cultured in an adipocyte induction medium free of any compound of ALK5 inhibitor II, SB431542, LY215799 and D4476 during Day 9-Day 14.

[10] = system: human dermal fibroblasts (HDFs); experiment: BODIPY staining of lipid droplets (Example 7); details: induction medium + T3 + Rosiglitazone, compounds 2 μM, day 14, FIG. 7A, 7B
Description: as §2, with “each low-molecular-weight” for “each”, “II:” for “II: 2 μM • PD0325901: 1 μM • Forskolin (FSK):”

[11] = system: human dermal fibroblasts (HDFs); experiment: UCP1, CIDEA and KCNK3 gene mRNA by real time RT-PCR (Example 17); details: ALK5 inhibitor II 4 μM or LY2157299 8 μM up to Day 9, day 14, FIG. 17
Description: (Day −1). In the control (Ctrl) group, the culture supernatant of the next day (Day 0) was removed by suction and the cells were cultured in a normal medium up to day 14 while substituting the medium with a fresh one once every other day. In groups other than the control (Ctrl) group, the culture supernatant was removed by suction on day 0, and an adipocyte induction medium added with any of ALK5 inhibitor II (4 μM) and LY2157299 (8 μM) was added at 1 mL/well.
Thereafter, the cells were cultured in an adipocyte induction medium free of any compound of ALK5 inhibitor II and LY215799 during Day 9-Day 14. On day 14, the medium was removed by suction from the wells of all groups, and the cells were washed with PBS(−).

SMILES | mRNA expression of UCP1 gene (conversion to brown adipocytes) [1] | mRNA expression of AdipoQ gene (conversion to brown adipocytes) [2] | UCP1 protein expression by immunostaining (conversion to brown adipocytes) [3] | Oil Red O staining [6] | UCP1 protein expression by immunostaining (induction into brown adipocytes) [7] | induction efficiency into brown adipocytes (order) [9] | UCP1 gene expression (conversion to brown adipocytes) [9] | other results
O=C(NOC[C@H](O)CO)c1ccc(F)c(F)c1Nc1ccc(I)cc1F [PD0325901] | induced to brown adipocytes that express mRNA of UCP1 gene | converted to brown adipocytes expressing mRNA of AdipoQ gene | converted to brown adipocytes expressing UCP1 protein |  |  |  |  | change of expression of UCP-1 protein by addition culture ([3]; PD0325901 1 μM or Forskolin 2 μM, day 14, FIG. 8B): increases; mRNA expression of PGC-1alpha gene (conversion to brown adipocytes) [4]: converted to brown adipocytes expressing mRNA of PGC-1alpha gene
CC(C)NCC(O)c1ccc(O)c(O)c1 (centres unmarked) [Isoproterenol, isoproterenol] |  |  |  |  |  |  |  | UCP1 mRNA expression on stimulation [5]: more strongly express UCP1 mRNA
Cc1ccc(C(=O)Cn2c3c(sc2=N)CCCC3)cc1 [Pifithrin alpha] |  |  |  | hardly observed |  |  |  | 
NC(=O)c1ccc(-c2nc(-c3ccc4c(c3)OCO4)c(-c3ccccn3)[nH]2)cc1 [SB431542, 4-[4-(1,3-Benzodioxol-5-yl)-5-(pyridin-2-yl)-1H-imidazol-2-yl]benzamide] | induced to brown adipocytes that express mRNA of UCP1 gene | converted to brown adipocytes expressing mRNA of AdipoQ gene | converted to brown adipocytes expressing UCP1 protein | Remarkable Oil Red O staining | induced into brown adipocytes expressing UCP1 protein | ALK5 inhibitor II>LY2157299>SB431541>D4476 | converted to brown adipocytes strongly expressing UCP1 gene | mRNA expression of CIDEA gene (conversion to brown adipocytes) [8]: converted to brown adipocytes expressing mRNA of CIDEA gene; lipid droplets stained with BODIPY (conversion to brown adipocytes) [10]: converted to brown adipocytes having lipid droplets stained with BODIPY
Cc1cccc(-c2nn3c(c2-c2ccnc4ccc(C(N)=O)cc24)CCC3)n1 [LY2157299, 4-[5,6-dihydro-2-(6-methyl-2-pyridinyl)-4H-pyrrolo[1,2-b]pyrazol-3-yl]-6-quinolinecarboxamide] |  |  |  |  | induced into brown adipocytes expressing UCP1 protein | second most strong | converted to brown adipocytes strongly expressing UCP1 gene | strength of induction of UCP1 expression (order) ([7]; immunostaining day 14, FIG. 16): second most strong; CIDEA gene expression [11]: induced into brown adipocytes expressing UCP1 gene, CIDEA gene and KCNK3 gene; KCNK3 gene expression [11]: induced into brown adipocytes expressing UCP1 gene, CIDEA gene and KCNK3 gene; UCP1 gene expression [11]: induced into brown adipocytes expressing UCP1 gene, CIDEA gene and KCNK3 gene
